The values that follow are results of earlier work, collected in patent publication US20090022788A1, “DIETARY SUPPLEMENT FOR HEALING OR REGRESSING SYMPTOMS OF GASTROESOPHAGEAL REFLUX DISEASE, GASTRITIS AND ULCERS” (priority 2006, published 2009).

The structures appear in SMILES notation.

The data set concerns spontaneous gastric ulcers. The following applies: young pigs, 4-week administration in the diet.

As to `COc1ccc2[nH]cc(CCNC(C)=O)c2c1` [melatonin, N-Acetyl-5-methoxytryptamine], the “incidence of spontaneous gastric ulcers” value is listed as “significantly reduced”.
